Source: patent publication US8178658B2 (Dow AgroSciences, LLC, priority 2008, dated 2012)

Columns and labels:
[1] = test system: beet armyworm (BAW; Spodoptera exigua: Lepidoptera); test: 96-well microtiter plate-based high throughput (HTS) diet bioassay on beet armyworm (BAW HTS); type: in vivo; details: BAW eggs, 12 μg test compound per well, mortality at 6 d post-treatment, mortality class
Summary of the method: (§1)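 Percent larval mortality after six days was the endpoint. Higher-throughput plates used eggs, 12 μg compound per well and 29° C darkness; trays used second instar larvae, a 50 μg/cm^2 dose and 25° C with 14:10 light cycle.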

[2] = test system: beet armyworm (BAW; Spodoptera exigua: Lepidoptera); test: 128-well diet tray assay on beet armyworm (BAW 50); type: in vivo; details: 128-well diet tray assay; 50 μg/cm^2 of test compound on diet; second instar BAW larvae; mortality class
Summary of the method: as §1

[3] = 96-well microtiter plate HTS diet assay

Row | SMILES | BAW HTS ([1]; 96-well HTS diet assay) | BAW HTS [1, 3] | BAW 50 ug/cm2 [2]
1 | CCOC1C(OC)C(C)OC(ON=Cc2ccc(-c3ncc(-c4cccc(OC(F)(F)F)c4)cn3)cc2)C1OC (stereo not drawn) [Compound 143] | B (either (1) the compound was tested and less than 50 percent mortality was observed or (2) the compound was not tested) | B (either (1) the compound was tested and less than 50 percent mortality was observed or (2) the compound was not tested) | A (the compound was tested and at least 50 percent mortality was observed)
2 | CCCOC1C(OC)C(C)OC(ON=Cc2ccc(-c3ncc(-c4ccc(OC(F)(F)F)cc4)cn3)cc2)C1OC (stereo not drawn) [Compound 144] | B (either (1) the compound was tested and less than 50 percent mortality was observed or (2) the compound was not tested) | B (either (1) the compound was tested and less than 50 percent mortality was observed or (2) the compound was not tested) | A (the compound was tested and at least 50 percent mortality was observed)
3 | CCOC1C(OC)C(C)OC(ON=Cc2cccc(-c3ncc(-c4ccc(OC(F)(F)F)cc4)cn3)c2)C1OC (stereo not drawn) [Compound 146] | B (either (1) the compound was tested and less than 50 percent mortality was observed or (2) the compound was not tested) | B (either (1) the compound was tested and less than 50 percent mortality was observed or (2) the compound was not tested) | A (the compound was tested and at least 50 percent mortality was observed)
4 | CCOC1C(OC)C(C)OC(ON=Cc2cccc(-c3ncc(-c4ccccc4OC(F)(F)F)cn3)c2)C1OC (stereo not drawn) [Compound 147] | B (either (1) the compound was tested and less than 50 percent mortality was observed or (2) the compound was not tested) | B (either (1) the compound was tested and less than 50 percent mortality was observed or (2) the compound was not tested) | B (either (1) the compound was tested and less than 50 percent mortality was observed or (2) the compound was not tested)
5 | CCOC1C(OC)C(C)OC(ON=Cc2ccc(-c3ncc(-c4ccc(OC(F)(F)F)cc4)cn3)cc2F)C1OC (stereo not drawn) [Compound 148] | B (either (1) the compound was tested and less than 50 percent mortality was observed or (2) the compound was not tested) | B (either (1) the compound was tested and less than 50 percent mortality was observed or (2) the compound was not tested) | A (the compound was tested and at least 50 percent mortality was observed)
6 | CCOC1C(OC)C(C)OC(ON=Cc2cccc(-c3ncc(-c4cccc(OC(F)(F)F)c4)cn3)c2)C1OC (stereo not drawn) [Compound 149] | B (either (1) the compound was tested and less than 50 percent mortality was observed or (2) the compound was not tested) | B (either (1) the compound was tested and less than 50 percent mortality was observed or (2) the compound was not tested) | A (the compound was tested and at least 50 percent mortality was observed)
7 | CCOC1C(OC)C(C)OC(ON=Cc2ccc(-c3ncc(-c4ccc(C)cc4)cn3)cc2)C1OC (stereo not drawn) [Compound 150] | B (either (1) the compound was tested and less than 50 percent mortality was observed or (2) the compound was not tested) | B (either (1) the compound was tested and less than 50 percent mortality was observed or (2) the compound was not tested) | B (either (1) the compound was tested and less than 50 percent mortality was observed or (2) the compound was not tested)
8 | CCOC1C(OC)C(C)OC(ON=Cc2ccc(-c3ncc(-c4ccc(C(F)(F)F)cc4)cn3)cc2)C1OC (stereo not drawn) [Compound 151] | B (either (1) the compound was tested and less than 50 percent mortality was observed or (2) the compound was not tested) | B (either (1) the compound was tested and less than 50 percent mortality was observed or (2) the compound was not tested) | A (the compound was tested and at least 50 percent mortality was observed)
9 | CCOC1C(OC)C(C)OC(ON=Cc2ccc(-c3ncc(-c4ccccc4C)cn3)cc2)C1OC (stereo not drawn) [Compound 152] | B (either (1) the compound was tested and less than 50 percent mortality was observed or (2) the compound was not tested) | B (either (1) the compound was tested and less than 50 percent mortality was observed or (2) the compound was not tested) | A (the compound was tested and at least 50 percent mortality was observed)
10 | CCOC1C(OC)C(C)OC(ON=Cc2ccc(-c3ncc(-c4ccc(F)cc4)cn3)cc2)C1OC (stereo not drawn) [Compound 153] | B (either (1) the compound was tested and less than 50 percent mortality was observed or (2) the compound was not tested) | B (either (1) the compound was tested and less than 50 percent mortality was observed or (2) the compound was not tested) | A (the compound was tested and at least 50 percent mortality was observed)
11 | CCOC1C(OC)C(C)OC(ON=Cc2ccc(-c3ncc(-c4ccc(C#N)cc4)cn3)cc2)C1OC (stereo not drawn) [Compound 154] | B (either (1) the compound was tested and less than 50 percent mortality was observed or (2) the compound was not tested) | B (either (1) the compound was tested and less than 50 percent mortality was observed or (2) the compound was not tested) | A (the compound was tested and at least 50 percent mortality was observed)
12 | CCOC1C(OC)C(C)OC(ON=Cc2ccc(-c3ncc(-c4ccccc4OC(F)(F)F)cn3)cc2)C1OC (stereo not drawn) [Compound 156] | B (either (1) the compound was tested and less than 50 percent mortality was observed or (2) the compound was not tested) | B (either (1) the compound was tested and less than 50 percent mortality was observed or (2) the compound was not tested) | A (the compound was tested and at least 50 percent mortality was observed)
13 | COC1C(C)OC(ON=Cc2ccc(-c3ncnc(-c4ccc(C(F)(F)F)cc4)n3)cc2)C(OC)C1OC (stereo not drawn) [Compound 157] | A (the compound was tested and at least 50 percent mortality was observed) | A (the compound was tested and at least 50 percent mortality was observed) | B (either (1) the compound was tested and less than 50 percent mortality was observed or (2) the compound was not tested)
14 | COC1C(C)OC(ON=Cc2ccc(-c3ncnc(-c4ccc(OC(F)(F)F)cc4)n3)cc2)C(OC)C1OC (stereo not drawn) [Compound 158] | A (the compound was tested and at least 50 percent mortality was observed) | A (the compound was tested and at least 50 percent mortality was observed) | A (the compound was tested and at least 50 percent mortality was observed)
15 | COC1C(C)OC(ON=Cc2ccc(-c3cncc(-c4ccc(OC(F)(F)F)cc4)n3)cc2)C(OC)C1OC (stereo not drawn) [Compound 159] | A (the compound was tested and at least 50 percent mortality was observed) | A (the compound was tested and at least 50 percent mortality was observed) | A (the compound was tested and at least 50 percent mortality was observed)
16 | CCOC1C(OC)C(C)OC(ON=Cc2ccc(N3CCN(c4ccc(OC(F)(F)F)cc4)CC3)nc2)C1OC (stereo not drawn) [Compound 160] | A (the compound was tested and at least 50 percent mortality was observed) | A (the compound was tested and at least 50 percent mortality was observed) | A (the compound was tested and at least 50 percent mortality was observed)
17 | CCOC1C(OC)C(C)OC(ON=Cc2ccc(N3CCN(c4ccc(C(F)(F)F)cn4)CC3)cc2)C1OC (stereo not drawn) [Compound 161] | A (the compound was tested and at least 50 percent mortality was observed) | A (the compound was tested and at least 50 percent mortality was observed) | A (the compound was tested and at least 50 percent mortality was observed)
18 | CCCOC1C(OC)C(C)OC(ON=Cc2ccc(N3CCN(c4ccc(OC(F)(F)F)cc4)CC3)cc2)C1OC (stereo not drawn) [Compound 162] | B (either (1) the compound was tested and less than 50 percent mortality was observed or (2) the compound was not tested) | B (either (1) the compound was tested and less than 50 percent mortality was observed or (2) the compound was not tested) | A (the compound was tested and at least 50 percent mortality was observed)
19 | CCOC1C(OC)C(C)OC(ON=Cc2ccc(-c3ncc(-c4ccc(SC)cc4)cn3)cc2)C1OC (stereo not drawn) [Compound 163] | B (either (1) the compound was tested and less than 50 percent mortality was observed or (2) the compound was not tested) | B (either (1) the compound was tested and less than 50 percent mortality was observed or (2) the compound was not tested) | B (either (1) the compound was tested and less than 50 percent mortality was observed or (2) the compound was not tested)
20 | COC1C(C)OC(ON=C(C)c2ccc(-c3cn(-c4ccc(OC(F)(F)F)cc4)cn3)s2)C(OC)C1OC (stereo not drawn) [Compound 164] | B (either (1) the compound was tested and less than 50 percent mortality was observed or (2) the compound was not tested) | B (either (1) the compound was tested and less than 50 percent mortality was observed or (2) the compound was not tested) | B (either (1) the compound was tested and less than 50 percent mortality was observed or (2) the compound was not tested)
21 | COC1C(C)OC(ON=C(C)c2ccc(-c3cn(-c4ccc(OC(F)(F)F)cc4)cn3)cc2)C(OC)C1OC (stereo not drawn) [Compound 165] | B (either (1) the compound was tested and less than 50 percent mortality was observed or (2) the compound was not tested) | B (either (1) the compound was tested and less than 50 percent mortality was observed or (2) the compound was not tested) | A (the compound was tested and at least 50 percent mortality was observed)
